Experimental data as given in the supplement of paper PMC10307832.

How the values were obtained:
Test in all cases: relative viability (nuclei count vs DMSO), 5 days (fraction); higher = more cells survive
Tosedostat + Luminespib = compound: CC(C)C[C@@H](C(=O)N[C@H](C(=O)OC1CCCC1)c1ccccc1)[C@H](O)C(=O)NO [Tosedostat] + CCNC(=O)c1noc(-c2cc(C(C)C)c(O)cc2O)c1-c1ccc(CN2CCOCC2)cc1 [Luminespib] (partner 0.01 µM)
Method in brief: (§1)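 Lung cancer cell lines, seeded in 1536-well plates, were treated the following day by pin tool with a single drug or with five library-drug doses (not always all listed) in √10 steps on top of a fixed anchor-drug dose. Cells were fixed and nuclei stained in one step after 5 days, and nuclei were counted. Relative viability is the nuclei count for treated wells divided by that for vehicle wells, reported as medians of duplicate plates.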

[1] = compound: CC1=NN=C(O1)C2=NN=C(C=C2)N3CCC(CC3)OC4=C(C=CC(=C4)F)Cl + CC(=O)Nc1cccc(-n2c(=O)n(C3CC3)c(=O)c3c(Nc4ccc(I)cc4F)n(C)c(=O)c(C)c32)c1 [Trametinib] (partner 0.02 µM)
Method in brief: as §1

[2] = compound: CC1=NN=C(O1)C2=NN=C(C=C2)N3CCC(CC3)OC4=C(C=CC(=C4)F)Cl + C[C@]1(O)C[C@@H](c2nc(-c3ccc4ccc(-c5ccccc5)nc4c3)c3c(N)nccn32)C1 [Linsitinib] (partner 1 µM)
Method in brief: as §1

[3] = compound: CC1=NN=C(O1)C2=NN=C(C=C2)N3CCC(CC3)OC4=C(C=CC(=C4)F)Cl + Nc1ncn([C@H]2C[C@H](O)[C@@H](CO)O2)c(=O)n1 [Decitabine] (partner 2 µM)
Method in brief: as §1

Row | Cell Line | relative viability (Tosedostat + Luminespib; first compound 0.02 µM) | relative viability (Tosedostat + Luminespib; first compound 0.06325 µM) | relative viability (Tosedostat + Luminespib; first compound 0.2 µM) | relative viability (Tosedostat + Luminespib; first compound 0.6325 µM) | relative viability (Tosedostat + Luminespib; first compound 2 µM) | relative viability ([1]; first compound 0.253 µM) | relative viability ([1]; first compound 0.8 µM) | relative viability ([1]; first compound 2.53 µM) | relative viability ([1]; first compound 8 µM) | relative viability ([2]; first compound 0.253 µM) | relative viability ([2]; first compound 0.8 µM) | relative viability ([2]; first compound 2.53 µM) | relative viability ([2]; first compound 8 µM) | relative viability ([3]; first compound 0.253 µM) | relative viability ([3]; first compound 0.8 µM) | relative viability ([3]; first compound 2.53 µM) | relative viability ([3]; first compound 8 µM)
1 | 201T | 0.969 | 1.2 | 1.14 | 1.24 | 1.18 | 0.414 | 0.425 | 0.405 | 0.384 | 0.569 | 0.596 | 0.634 | 0.565 | 0.459 | 0.647 | 0.445 | 0.43
2 | A549 | – | – | – | – | – | – | – | – | – | 0.543 | 0.565 | 0.427 | 0.351 | 0.223 | 0.218 | 0.222 | 0.208
3 | A-427 | 0.882 | 0.739 | 1.01 | 0.919 | 1.08 | 0.818 | 0.711 | 0.869 | 0.825 | 0.947 | – | 0.907 | 0.887 | 0.55 | 0.576 | 0.53 | 0.569
4 | ABC-1 | 0.622 | 0.706 | 0.596 | 0.647 | 0.398 | – | – | – | – | 0.627 | 0.465 | 0.575 | 0.451 | 0.49 | 0.539 | 0.406 | 0.423
5 | BEN | 0.467 | 0.387 | 0.264 | 0.435 | 0.248 | 1.1 | 1.12 | 1.03 | 1.17 | 0.784 | 0.879 | 0.919 | 0.75 | 0.75 | 0.775 | 0.713 | 0.668
6 | CAL-12T | 0.364 | 0.304 | 0.834 | 0.713 | 0.353 | 0.337 | 0.313 | 0.255 | 0.217 | 0.953 | 0.78 | 0.754 | 0.869 | – | – | – | –
7 | COR-L23 | 0.792 | 0.729 | 0.687 | 0.698 | 0.504 | 0.498 | 0.396 | 0.529 | 0.444 | 0.669 | 0.726 | 0.678 | 0.579 | 0.383 | 0.409 | 0.396 | 0.409
8 | COR-L 105 | 0.693 | 0.726 | 0.835 | 0.733 | 0.693 | 0.488 | 0.424 | 0.414 | 0.429 | 0.764 | 0.935 | 1.1 | 1.21 | 0.676 | 0.592 | 0.667 | 0.638
9 | Calu-6 | – | – | – | – | – | – | – | – | – | 0.635 | 0.612 | 0.691 | 0.656 | – | – | – | –
10 | ChaGo-K-1 | 0.648 | 0.598 | 0.836 | 0.572 | 0.491 | 0.649 | 0.555 | 0.613 | 0.57 | – | – | – | – | 0.392 | 0.465 | 0.391 | 0.374
11 | EBC-1 | – | – | – | – | – | – | – | – | – | 0.549 | 0.558 | 0.623 | 0.57 | – | – | – | –
12 | EKVX | 0.796 | 0.884 | 0.853 | 0.784 | 0.806 | 0.26 | 0.254 | 0.26 | 0.286 | 0.409 | 0.341 | 0.364 | 0.423 | 0.292 | 0.261 | 0.309 | 0.225
13 | EMC-BAC-2 | 1.26 | 1.06 | 1.17 | 1.15 | 0.986 | 0.873 | 0.736 | 0.791 | 0.65 | 0.742 | 0.755 | 0.77 | 0.637 | 0.903 | 0.837 | 0.957 | 0.794
14 | EPLC-272H | 0.246 | 0.265 | 0.278 | 0.285 | 0.225 | 0.267 | 0.247 | 0.291 | 0.309 | 1.09 | – | 1.18 | 1.05 | 0.361 | 0.366 | 0.4 | 0.374
15 | H3255 | 1.02 | 0.807 | 0.906 | 0.683 | 0.75 | 0.407 | 0.491 | 0.573 | 0.483 | 0.697 | 0.719 | 0.718 | 0.716 | 0.484 | 0.525 | 0.464 | 0.564
16 | HARA | 0.683 | 0.554 | 0.766 | 0.481 | 0.779 | 0.438 | 0.369 | 0.448 | 0.322 | 0.705 | 0.394 | 0.451 | 0.308 | 0.414 | 0.384 | 0.357 | 0.319
17 | HCC-15 | 0.408 | 0.269 | 0.78 | 0.211 | 0.308 | 0.404 | 0.399 | 0.376 | 0.385 | 0.608 | 0.58 | 0.553 | 0.578 | 0.497 | 0.5 | 0.493 | 0.457
18 | HCC-44 | 1.29 | 0.987 | 0.985 | 0.957 | 0.834 | 0.608 | 0.994 | 0.945 | 0.856 | 0.423 | 0.484 | 0.484 | 0.384 | 0.44 | 0.413 | 0.436 | 0.425
